The values below come from publication PMC9736855, “Discovery of 3-Amino-1H-pyrazole-Based Kinase Inhibitors to Illuminate the Understudied PCTAIRE Family” (International Journal of Molecular Sciences, 2022).

Assay in all cases: DSF
Assay type in all cases: binding

One test deals with T1, BRD4 (Homo sapiens, UniProt O60885).
T1 construct: purchased in-house DSF panel (SGC Frankfurt)

The target in another test is T2, BMPR2 (Homo sapiens, UniProt Q13873).
T2 construct: purchased in-house DSF panel (SGC Frankfurt)
T2 sequence (Q13873 27-1038): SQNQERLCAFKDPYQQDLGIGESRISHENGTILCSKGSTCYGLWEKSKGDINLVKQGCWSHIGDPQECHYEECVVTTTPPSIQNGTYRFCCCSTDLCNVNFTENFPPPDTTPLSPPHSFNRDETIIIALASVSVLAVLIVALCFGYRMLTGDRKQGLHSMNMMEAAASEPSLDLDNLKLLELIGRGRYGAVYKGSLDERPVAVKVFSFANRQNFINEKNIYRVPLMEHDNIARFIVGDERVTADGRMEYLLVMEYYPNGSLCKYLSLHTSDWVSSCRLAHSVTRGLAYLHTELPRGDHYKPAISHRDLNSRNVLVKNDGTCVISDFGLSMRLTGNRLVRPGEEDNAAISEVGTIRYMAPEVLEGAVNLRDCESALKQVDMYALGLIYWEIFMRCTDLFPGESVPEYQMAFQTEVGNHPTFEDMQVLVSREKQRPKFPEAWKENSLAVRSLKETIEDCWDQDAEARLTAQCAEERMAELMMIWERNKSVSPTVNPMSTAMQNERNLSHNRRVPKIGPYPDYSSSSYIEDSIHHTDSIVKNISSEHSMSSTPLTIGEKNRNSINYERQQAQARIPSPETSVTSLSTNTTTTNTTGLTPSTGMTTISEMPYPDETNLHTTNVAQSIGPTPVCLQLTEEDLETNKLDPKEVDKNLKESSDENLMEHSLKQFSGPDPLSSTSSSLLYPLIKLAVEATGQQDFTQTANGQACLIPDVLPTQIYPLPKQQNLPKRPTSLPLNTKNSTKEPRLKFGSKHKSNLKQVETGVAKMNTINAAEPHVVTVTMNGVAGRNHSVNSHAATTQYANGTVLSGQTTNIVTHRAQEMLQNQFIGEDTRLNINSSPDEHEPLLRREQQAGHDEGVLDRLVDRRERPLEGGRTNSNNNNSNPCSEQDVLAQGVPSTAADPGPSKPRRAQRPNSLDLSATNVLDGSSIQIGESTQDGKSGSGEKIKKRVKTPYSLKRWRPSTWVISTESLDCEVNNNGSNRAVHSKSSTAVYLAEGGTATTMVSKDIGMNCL

The next test deals with T3, MAPK14 (Homo sapiens, UniProt Q16539).
T3 construct: purchased in-house DSF panel (SGC Frankfurt)

A further test deals with T4, MST3 (Homo sapiens, UniProt Q9Y6E0).
T4 construct: purchased in-house DSF panel (SGC Frankfurt)

Another test deals with T5, BRAF (Homo sapiens, UniProt P15056).
T5 construct: purchased in-house DSF panel (SGC Frankfurt)

The target in the next test is T6, MAP2K4 (Homo sapiens, UniProt P45985).
T6 construct: purchased in-house DSF panel (SGC Frankfurt)
T6 sequence (P45985 102-367): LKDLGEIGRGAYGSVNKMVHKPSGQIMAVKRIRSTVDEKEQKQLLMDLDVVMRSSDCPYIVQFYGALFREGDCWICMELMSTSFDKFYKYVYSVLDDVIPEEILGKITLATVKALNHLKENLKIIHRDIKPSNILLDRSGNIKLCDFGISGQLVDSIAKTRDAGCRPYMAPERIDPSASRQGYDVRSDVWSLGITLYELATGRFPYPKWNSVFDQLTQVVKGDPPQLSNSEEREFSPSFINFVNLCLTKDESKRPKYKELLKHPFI

Another test deals with T7, STK17B (Homo sapiens, UniProt O94768).
T7 construct: purchased in-house DSF panel (SGC Frankfurt)
T7 sequence (O94768 25-329): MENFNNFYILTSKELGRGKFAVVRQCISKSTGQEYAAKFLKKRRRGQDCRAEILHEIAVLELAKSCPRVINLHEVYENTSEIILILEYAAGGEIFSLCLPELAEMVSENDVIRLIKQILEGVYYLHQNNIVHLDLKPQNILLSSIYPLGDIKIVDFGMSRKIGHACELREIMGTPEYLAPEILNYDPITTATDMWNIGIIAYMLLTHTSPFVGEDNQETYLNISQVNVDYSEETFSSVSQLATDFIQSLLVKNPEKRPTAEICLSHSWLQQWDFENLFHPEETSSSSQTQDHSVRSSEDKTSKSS

The next test deals with T8, CDKL1 (Homo sapiens, UniProt Q00532).
T8 construct: purchased in-house DSF panel (SGC Frankfurt)
On the procedure: (§1) Recombinant protein kinase domains with a concentration of 2 μM were mixed with a 10 μM compound solution in DMSO, 20 mM HEPES, pH 7.5, and 500 mM NaCl. SYPRO Orange (5000×, Invitrogen) was added as a fluorescence probe (1 µl per mL). Subsequently, temperature-dependent protein unfolding profiles were measured, using the QuantStudio™ 5 realtime PCR machine (Thermo Fisher, Waltham, MA, USA). […] The temperature was raised with a step rate of 3 °C per minute. Data points were analyzed with the internal software (Thermal Shift SoftwareTM Version 1.4, Thermo Fisher) using the Boltzmann equation to determine the inflection point of the transition curve. Differences in melting temperature are given as ΔTm values in °C. Measurements were performed in duplicates.

The target in the next test is T9, BMX (Homo sapiens, UniProt P51813).
T9 construct: purchased in-house DSF panel (SGC Frankfurt)
On the procedure:
as §1

The target of the next test is T10, CAMK1G (Homo sapiens, UniProt Q96NX5).
T10 construct: purchased in-house DSF panel (SGC Frankfurt)
On the procedure:
as §1

The next test deals with T11, RIOK1 (Homo sapiens, UniProt Q9BRS2).
T11 construct: purchased in-house DSF panel (SGC Frankfurt)
T11 sequence (Q9BRS2 143-494): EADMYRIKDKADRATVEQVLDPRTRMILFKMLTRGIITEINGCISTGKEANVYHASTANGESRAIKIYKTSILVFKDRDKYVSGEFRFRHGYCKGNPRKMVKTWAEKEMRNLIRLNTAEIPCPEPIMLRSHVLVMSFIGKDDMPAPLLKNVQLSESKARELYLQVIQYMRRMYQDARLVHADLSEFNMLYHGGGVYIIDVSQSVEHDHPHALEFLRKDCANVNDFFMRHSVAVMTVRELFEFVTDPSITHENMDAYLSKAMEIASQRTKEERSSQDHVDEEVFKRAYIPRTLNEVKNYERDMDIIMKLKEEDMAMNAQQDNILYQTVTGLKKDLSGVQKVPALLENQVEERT
As to the method:
as §1

A further test deals with T12, MAPK1 (Homo sapiens, UniProt P28482).
T12 construct: purchased in-house DSF panel (SGC Frankfurt)
As to the method: as §1

The target in a further test is T13, PIM3 (Homo sapiens, UniProt Q86V86).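 Note: compound tested at 10 µM with 2 µM protein.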
T13 construct: purchased in-house DSF panel (SGC Frankfurt)

T4 sequence (Q9Y6E0 4-301): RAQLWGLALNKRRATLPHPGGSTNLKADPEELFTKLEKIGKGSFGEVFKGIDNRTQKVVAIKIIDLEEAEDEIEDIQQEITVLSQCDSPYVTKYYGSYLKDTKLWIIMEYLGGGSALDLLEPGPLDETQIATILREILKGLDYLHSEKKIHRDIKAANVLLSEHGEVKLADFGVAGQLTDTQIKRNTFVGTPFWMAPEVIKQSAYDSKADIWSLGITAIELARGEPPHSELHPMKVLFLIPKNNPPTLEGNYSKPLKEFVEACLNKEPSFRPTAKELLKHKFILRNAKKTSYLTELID
T9 sequence (P51813 411-675): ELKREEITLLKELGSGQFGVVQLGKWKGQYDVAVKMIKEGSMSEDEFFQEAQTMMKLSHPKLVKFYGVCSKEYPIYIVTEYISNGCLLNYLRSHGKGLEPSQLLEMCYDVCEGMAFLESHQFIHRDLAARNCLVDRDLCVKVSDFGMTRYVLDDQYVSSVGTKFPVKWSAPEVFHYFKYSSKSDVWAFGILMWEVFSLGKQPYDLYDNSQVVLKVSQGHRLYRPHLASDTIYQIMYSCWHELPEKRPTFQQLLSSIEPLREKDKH
T3 sequence (Q16539 whole entry): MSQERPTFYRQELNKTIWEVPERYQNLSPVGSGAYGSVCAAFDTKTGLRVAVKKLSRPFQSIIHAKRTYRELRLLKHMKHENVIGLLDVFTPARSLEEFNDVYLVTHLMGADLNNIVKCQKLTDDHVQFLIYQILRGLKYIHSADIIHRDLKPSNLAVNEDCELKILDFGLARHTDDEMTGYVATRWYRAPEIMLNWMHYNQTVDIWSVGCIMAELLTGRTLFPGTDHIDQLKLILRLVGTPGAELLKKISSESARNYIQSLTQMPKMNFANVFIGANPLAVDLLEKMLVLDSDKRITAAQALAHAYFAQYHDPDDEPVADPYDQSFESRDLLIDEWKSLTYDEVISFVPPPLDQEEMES
T8 sequence (Q00532 1-303): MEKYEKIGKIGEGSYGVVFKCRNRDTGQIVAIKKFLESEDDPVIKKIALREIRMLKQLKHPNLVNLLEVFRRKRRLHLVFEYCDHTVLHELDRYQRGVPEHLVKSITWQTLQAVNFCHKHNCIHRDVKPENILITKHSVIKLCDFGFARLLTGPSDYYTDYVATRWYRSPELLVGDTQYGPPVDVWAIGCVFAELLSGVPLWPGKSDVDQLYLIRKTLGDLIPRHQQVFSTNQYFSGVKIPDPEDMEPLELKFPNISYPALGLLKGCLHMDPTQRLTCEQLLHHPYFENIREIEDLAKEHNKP
T12 sequence (P28482 whole entry): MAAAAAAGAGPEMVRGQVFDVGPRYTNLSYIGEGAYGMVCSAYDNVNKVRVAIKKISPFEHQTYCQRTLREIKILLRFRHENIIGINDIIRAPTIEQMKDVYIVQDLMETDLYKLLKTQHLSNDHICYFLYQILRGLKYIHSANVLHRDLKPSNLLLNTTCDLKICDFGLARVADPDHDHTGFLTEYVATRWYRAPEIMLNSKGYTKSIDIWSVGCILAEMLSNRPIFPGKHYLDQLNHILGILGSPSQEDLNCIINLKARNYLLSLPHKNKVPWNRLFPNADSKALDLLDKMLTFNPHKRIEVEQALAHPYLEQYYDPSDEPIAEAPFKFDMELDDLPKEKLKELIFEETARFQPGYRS
T5 sequence (P15056 444-723): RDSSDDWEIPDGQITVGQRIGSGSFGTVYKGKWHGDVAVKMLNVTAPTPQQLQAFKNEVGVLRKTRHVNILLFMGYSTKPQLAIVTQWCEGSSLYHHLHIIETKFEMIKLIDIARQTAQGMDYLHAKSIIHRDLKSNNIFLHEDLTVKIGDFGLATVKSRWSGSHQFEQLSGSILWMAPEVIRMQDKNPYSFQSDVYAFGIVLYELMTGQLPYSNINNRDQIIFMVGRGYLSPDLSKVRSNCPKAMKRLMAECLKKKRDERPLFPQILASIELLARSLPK
T10 sequence (Q96NX5 whole entry): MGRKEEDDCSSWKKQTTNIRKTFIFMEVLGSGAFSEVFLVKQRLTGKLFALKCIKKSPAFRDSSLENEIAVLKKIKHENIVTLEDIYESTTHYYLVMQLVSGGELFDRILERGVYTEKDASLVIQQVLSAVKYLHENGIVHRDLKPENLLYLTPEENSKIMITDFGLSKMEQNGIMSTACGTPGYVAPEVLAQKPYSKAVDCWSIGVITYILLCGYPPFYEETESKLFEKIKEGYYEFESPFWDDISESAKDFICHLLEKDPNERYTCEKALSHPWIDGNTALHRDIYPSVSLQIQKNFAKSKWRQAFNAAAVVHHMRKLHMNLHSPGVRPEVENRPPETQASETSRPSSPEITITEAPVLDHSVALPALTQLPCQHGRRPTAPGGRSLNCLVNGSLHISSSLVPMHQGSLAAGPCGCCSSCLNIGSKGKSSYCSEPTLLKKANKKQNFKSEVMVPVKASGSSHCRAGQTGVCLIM
Procedure for BMPR2: (§2) Recombinant protein kinase domains with a concentration of 2 μM were mixed with a 10 μM compound solution in DMSO, 20 mM HEPES, pH 7.5, and 500 mM NaCl. SYPRO Orange (5000×, Invitrogen) was added as a fluorescence probe (1 µl per mL). Subsequently, temperature-dependent protein unfolding profiles were measured, using the QuantStudio™ 5 realtime PCR machine (Thermo Fisher, Waltham, MA, USA). […] The temperature was raised with a step rate of 3 °C per minute. Data points were analyzed with the internal software (Thermal Shift SoftwareTM Version 1.4, Thermo Fisher) using the Boltzmann equation to determine the inflection point of the transition curve [56]. Differences in melting temperature are given as ΔTm values in °C. Measurements were performed in duplicates.
Procedure for BRAF: as §2
Procedure for MAP2K4: as §2
Procedure for MAPK14: as §2
Procedure for MST3: as §2
Procedure for PIM3: as §2
Procedure for STK17B: as §2

As to `N#CCc1ccc(Nc2nccc(Nc3cc(C4CC4)[nH]n3)n2)cc1` [compound 1, reference compound], the “ΔTm BRD4” value on BRD4 worked out at 1.3 °C. Also, the “ΔTm BMPR2” value on BMPR2 stood at 9.2 °C. In addition, on MAPK14, the “ΔTm MAPK14” value was 2.5 °C. Also, the “ΔTm MST3” value on MST3 came to 9.3 °C. For the same molecule, at BRAF, the “ΔTm BRAF” value was 4.6 °C. Also, the “ΔTm MAP2K4” value on MAP2K4 came out at 10.0 °C. For the same molecule, the “ΔTm STK17B” value at STK17B amounted to 9.7 °C. For the same molecule, the “ΔTm CDKL1” value on CDKL1 is 6.8 °C. Besides, on BMX, the “ΔTm BMX” value came out at 4.4 °C. Moreover, on CAMK1G, the “ΔTm CAMK1G” value was 5.5 °C. The “ΔTm RIOK1” value at RIOK1 amounted to 4.9 °C. Moreover, the “ΔTm MAPK1” value at MAPK1 came out at 8.5 °C. Also, the “ΔTm PIM3” value on PIM3 came out at 3.8 °C.
Take `CC(C)(C)OC(=O)Nc1ccc(CNc2nccc(Nc3cc(C(=O)OC(C)(C)C)[nH]n3)n2)cc1` [43d, tert-butyl 3-((2-((4-((tert-butoxycarbonyl)amino)benzyl)amino)pyrimidin-4-yl)amino)-1H-pyrazole-5-carboxylate]: the “ΔTm BRD4” value at BRD4 was -1.5 °C. In addition, the “ΔTm BMPR2” value on BMPR2 worked out at 1.4 °C. Further, at MAPK14, the “ΔTm MAPK14” value is -0.3 °C. For the same molecule, the “ΔTm MST3” value at MST3 was -0.3 °C. For the same molecule, at BRAF, the “ΔTm BRAF” value is 0.7 °C. In addition, the “ΔTm MAP2K4” value at MAP2K4 was 1.0 °C. Moreover, on STK17B, the “ΔTm STK17B” value is -2.5 °C. Besides, the “ΔTm CDKL1” value at CDKL1 amounted to 2.1 °C. Further, at BMX, the “ΔTm BMX” value was -0.4 °C. At CAMK1G, the “ΔTm CAMK1G” value was -0.7 °C. For the same molecule, the “ΔTm MAPK1” value on MAPK1 worked out at 0.0 °C. Further, the “ΔTm PIM3” value at PIM3 was -1.6 °C.
Take `CC(C)OC(=O)c1cc(Nc2ccnc(NCc3ccc(NC(=O)OC(C)(C)C)cc3)n2)n[nH]1` [42d, isopropyl 3-((2-((4-((tert-butoxycarbonyl)amino)benzyl)amino)pyrimidin-4-yl)amino)-1H-pyrazole-5-carboxylate]: the “ΔTm BRD4” value on BRD4 is -2.1 °C. In addition, the “ΔTm BMPR2” value on BMPR2 was found to be 0.9 °C. On MAPK14, the “ΔTm MAPK14” value was -0.5 °C. Besides, the “ΔTm MST3” value at MST3 worked out at 0.8 °C. Further, the “ΔTm BRAF” value on BRAF stood at 0.4 °C. On MAP2K4, the “ΔTm MAP2K4” value was 0.4 °C. The “ΔTm STK17B” value at STK17B is -2.8 °C. Also, the “ΔTm CDKL1” value at CDKL1 came out at 1.7 °C. Besides, on BMX, the “ΔTm BMX” value was -0.1 °C. For the same molecule, at CAMK1G, the “ΔTm CAMK1G” value was -0.2 °C. For the same molecule, at MAPK1, the “ΔTm MAPK1” value was -0.1 °C. Also, on PIM3, the “ΔTm PIM3” value was -1.1 °C.
Consider `COC(=O)c1cc(Nc2ccnc(NCCOCCNC(=O)OC(C)(C)C)n2)[nH]n1` [21d, methyl 5-((2-((2-(2-((tert-butoxycarbonyl)amino)ethoxy)ethyl)amino)pyrimidin-4-yl)amino)-1H-pyrazole-3-carboxylate], for which the “ΔTm BRD4” value at BRD4 is 0.7 °C. For the same molecule, the “ΔTm BMPR2” value at BMPR2 was determined as 0.7 °C. Moreover, the “ΔTm MAPK14” value at MAPK14 was -0.3 °C. The “ΔTm MST3” value at MST3 was -0.3 °C. In addition, at BRAF, the “ΔTm BRAF” value was found to be 0.9 °C. Moreover, the “ΔTm MAP2K4” value at MAP2K4 is 0.9 °C. At STK17B, the “ΔTm STK17B” value is 1.6 °C. The “ΔTm CDKL1” value at CDKL1 stood at 0.1 °C. For the same molecule, at BMX, the “ΔTm BMX” value is 0.2 °C. In addition, the “ΔTm CAMK1G” value on CAMK1G was 0.4 °C. Moreover, the “ΔTm RIOK1” value at RIOK1 was 0.1 °C. Further, the “ΔTm MAPK1” value on MAPK1 came out at 0.3 °C. For the same molecule, the “ΔTm PIM3” value at PIM3 was found to be 0.0 °C.
As to `COC(=O)c1cc(Nc2ccnc(NCc3ccc(NC(=O)OC(C)(C)C)cc3)n2)[nH]n1` [21i, methyl 5-((2-((4-((tert-butoxycarbonyl)amino)benzyl)amino)pyrimidin-4-yl)amino)-1H-pyrazole-3-carboxylate], the “ΔTm BRD4” value at BRD4 came out at 1.0 °C. In addition, the “ΔTm BMPR2” value at BMPR2 was 1.1 °C. In addition, the “ΔTm MAPK14” value at MAPK14 is -0.6 °C. Besides, the “ΔTm MST3” value on MST3 came to 0.1 °C. Also, the “ΔTm BRAF” value at BRAF was found to be 1.0 °C. Further, the “ΔTm MAP2K4” value on MAP2K4 was determined as 2.4 °C. Besides, at STK17B, the “ΔTm STK17B” value was 3.4 °C. The “ΔTm CDKL1” value on CDKL1 was determined as 0.5 °C. On BMX, the “ΔTm BMX” value is -0.1 °C. Moreover, the “ΔTm CAMK1G” value on CAMK1G came to 0.4 °C. The “ΔTm RIOK1” value at RIOK1 was determined as 0.8 °C. Moreover, on MAPK1, the “ΔTm MAPK1” value amounted to 0.7 °C. The “ΔTm PIM3” value at PIM3 is -0.4 °C.
